# Tests used:
# [1] = test system: DLD-1 colorectal adenocarcinoma cells; test: MTT assay; assay type: cell-based, human; conditions: Homo sapiens, DLD-1, MTT, M ± SD, n = 3, read-out: IC50
# Method: (§1) DLD-1, HaCaT, and Balb/c 3T3 cells were maintained in DMEM, while HT-29 cells were grown in McCoy’s 5A medium with 10% FBS and 1% penicillin/streptomycin. All cell lines were incubated at 37 °C in a humidified atmosphere with 5% CO2. After detaching the cells with trypsin, they were quantified using a Scepter 3.0 automated cell counter (Millipore, Burlington, MA, USA).
# (§2) The metabolic activity of cells exposed to the tested derivatives, doxorubicin, and DMSO, was assessed using an MTT assay according to the manufacturer’s protocol (Sigma-Aldrich, St. Louis, MO, USA). Adherent cells were seeded into 96-well plates (5000–10,000 cells in 100 µL of growth medium per well) and allowed to adhere overnight before treatment. For lymphocytes, activation with phytohemagglutinin-L (1 µg/mL) was performed for 24 h, after which they were seeded in 96-well plates at a density of 100,000 cells/well in RPMI-1640 medium supplemented with 20% FBS. The test substances, including Les-6547, Les-6557, and doxorubicin, were added to 100 µL of culture medium to achieve final concentrations of 0 µM, 0.1 µM, 1 µM, 2.5 µM, 10 µM, and 100 µM for all compounds, and the cells were further incubated for 24, 48, or 72 h. DMSO-treated cells served as the control. Then, 20 µL of MTT solution (5 mg/mL) was added and incubated for 2–4 h to allow formazan crystal formation. The formazan crystals were then solubilized by adding DMSO. The absorbance of formazan was measured at 570 nm using a ThermoScientific Evolution 201 UV-VIS spectrophotometer (ThermoFisher Scientific, Waltham, MA, USA). The control condition with 0.5% DMSO was considered 100% viability. The IC50 values for the compounds were determined using GraphPad Prism 8 and 9 software (GraphPad Software, Boston, MA, USA).
# [2] = test system: HT-29 colorectal adenocarcinoma cells; test: Colony forming (clonogenic) assay; assay type: cell-based, human; conditions: Homo sapiens
# Method: (§3) For colony forming assay, HT-29 and DLD-1 cells were seeded in 12-well plates at a density of 500 cells in 2 mL of growth medium per well. After overnight incubation, the cells were exposed to the compounds Les-6547, Les-6557, and doxorubicin at concentrations ranging from 0.1 to 100 µM for 72 h. Following treatment, the medium was replaced with fresh medium without the compounds. After 14 days of culture, cells were rinsed with PBS and fixed with cold methanol for 10 min. Subsequently, the cells were stained with a 0.1% crystal violet solution for 10 min. After washing, the plates were allowed to dry at room temperature. Numbers of colonies were quantified using ImageJ software (version 1.5.4; National Institutes of Health, Bethesda, MD, USA). The effect of the compounds on the colony-forming capacity was calculated as a percentage of colonies relative to the untreated control group.
# [3] = test system: DLD-1 colorectal adenocarcinoma cells; test: Colony forming (clonogenic) assay; assay type: cell-based, human
# Method: as §3
# [4] = test system: HT-29 colorectal adenocarcinoma cells; test: [^3H]-thymidine incorporation assay (DNA biosynthesis); assay type: cell-based; conditions: Homo sapiens; HT-29, 24 h, M ± SD, n = 3
# Method: (§4) The anti-proliferative potential of Les-6547 and Les-6557 was analyzed using a clonogenic assay and incorporation of radioactive [^3H]-thymidine into the DNA of colorectal adenocarcinoma HT-29 and DLD-1 cell lines after 24 h of incubation with various concentrations of the tested agents.
# (§5) Next, we examined the effects of the tested compounds on the proliferative activity of human colorectal adenocarcinoma cells by assessing their ability to influence DNA biosynthesis using the thymidine incorporation assay (Figure 6, Table 8). Les-6547 decreased DNA biosynthesis in DLD-1 cells to 50% at a concentration of 2.19 ± 0.39 µM.
# [5] = test system: DLD-1 colorectal adenocarcinoma cells; test: as above; assay type: cell-based; conditions: Homo sapiens; DLD-1, 24 h, M ± SD, n = 3
# Method: as §4, §5
# [6] = test system: HT-29 colorectal adenocarcinoma cells; test: MTT assay; assay type: cell-based; conditions: Homo sapiens, HT-29, MTT, M ± SD, n = 3, read-out: IC50
# Method: as §1, §2
# [7] = test system: HaCaT (human keratinocytes); test: MTT assay; assay type: cell-based; conditions: 72 h, M ± SD, n = 3
# Method: as §1, §2
# [8] = test system: Balb/c 3T3 (mouse fibroblasts); test: MTT assay; assay type: cell-based; conditions: BALB/c3T3, Balb/c 3T3, MTT, 72 h, M ± SD, n = 3
# Method: as §1, §2
# Human blood lymphocytes = test: MTT assay; assay type: cell-based; conditions: Lymphocyte, human blood lymphocytes, 72 h, M ± SD, n = 3
# Method: Lymphocytes from human peripheral blood were isolated with sodium heparin (10 U/mL) as an anticoagulant. Isolation was performed through a density gradient method with the Gradisol G, following a modified procedure. Peripheral blood was mixed with Gradisol G in equal proportions (1:1) and centrifuged at 400× g for 30 min at room temperature. The cells were collected, washed in phosphate-buffered saline (PBS), and treated with a hypotonic solution to remove residual erythrocytes. Lymphocytes were activated by phytohemagglutinin-L (1 µg/mL) and cultured in RPMI-1640 medium supplemented with 20% fetal bovine serum under controlled conditions of 95% air and 5% CO2 [27].
# as §2
smiles,measurement,setting,value
"COc1cccc2c1C(=O)c1c(O)c3c(c(O)c1C2=O)C[C@@](O)(C(=O)CO)C[C@@H]3O[C@H]1C[C@H](N)[C@H](O)[C@H](C)O1 [Doxorubicin, doxorubicin, reference compound]",IC50,[1]; 24 h,65300 ± 6080 nM
same,IC50,[1]; 48 h,2010 ± 90 nM
same,IC50,[1]; 72 h,760 ± 100 nM
same,inhibition at 1 µM,"[2]; HT-29, 1 µM, read-out: inhibition of colony formation",100%
same,IC50,"[2]; HT-29, 72 h treatment, 14 days of incubation, n = 3",~500 nM
same,colony growth,"[3]; DLD-1, 10 µM",3.86%
same,IC50,"[3]; Homo sapiens, DLD-1, 72 h treatment, 14 days of incubation, M ± SD, n = 3",3230 ± 50 nM
same,IC50,[4],4720 ± 800 nM
same,IC50,[5],6390 ± 20 nM
same,IC50,[6]; 24 h,17000 ± 880 nM
same,IC50,[6]; 48 h,1550 ± 140 nM
same,IC50,[6]; 72 h,2110 ± 60 nM
same,IC50,[7],900 ± 100 nM
same,IC50,[8],560 ± 110 nM
same,IC50,Human blood lymphocytes,710 ± 110 nM
